# Values of other authors in patent US20120097160A1, “AGGLOMERATE FORMULATIONS INCLUDING ACTIVE PHARMACEUTICAL AGENTS WITH TARGETED PARTICLE SIZES” (SCHERING CORPORATION, priority 2009, published 2012).
# Like-named read-outs stand apart in the source and are kept apart here.
structure (smiles),measurement,setting,value
"C[C@@H]1C[C@H]2[C@@H]3CCC4=CC(=O)C=C[C@]4(C)[C@@]3(Cl)[C@@H](O)C[C@]2(C)[C@@]1(OC(=O)c1ccco1)C(=O)CCl [Mometasone furoate, 9,21-Dichloro-11(beta), 17-dihydroxy-16(alpha)-methylpregna-1,4-diene-3,20-dione 17-(2 furoate)]",solubility,acetone,soluble
same,solubility,chloroform,soluble
same,solubility,ethanol,slightly soluble
same,solubility,isopropanol,slightly soluble
same,solubility,methanol,slightly soluble
same,solubility,tetrahydrofuran,freely soluble
same,solubility,water,practically insoluble
